According to ChEMBL document CHEMBL2021888, “Discovery of Novel α4β2 Neuronal Nicotinic Receptor Modulators through Structure-Based Virtual Screening” (ACS Med Chem Lett, 2011):

Legend:
[1] = biological target: T1, Neuronal acetylcholine receptor; alpha4/beta2 (Homo sapiens, UniProt P17787+P43681); test: Antagonist activity at human alpha4beta2 nAChR expressed in HEK tsA201 cells assessed as inhibition of epibatidine-induced intracellular calcium accumulation at 50 uM after 1 hr by fluorescence assay relative to control; format: functional, cell-based; conditions: HEK293, values are per cent of control
T1 sequence (P17787 whole entry): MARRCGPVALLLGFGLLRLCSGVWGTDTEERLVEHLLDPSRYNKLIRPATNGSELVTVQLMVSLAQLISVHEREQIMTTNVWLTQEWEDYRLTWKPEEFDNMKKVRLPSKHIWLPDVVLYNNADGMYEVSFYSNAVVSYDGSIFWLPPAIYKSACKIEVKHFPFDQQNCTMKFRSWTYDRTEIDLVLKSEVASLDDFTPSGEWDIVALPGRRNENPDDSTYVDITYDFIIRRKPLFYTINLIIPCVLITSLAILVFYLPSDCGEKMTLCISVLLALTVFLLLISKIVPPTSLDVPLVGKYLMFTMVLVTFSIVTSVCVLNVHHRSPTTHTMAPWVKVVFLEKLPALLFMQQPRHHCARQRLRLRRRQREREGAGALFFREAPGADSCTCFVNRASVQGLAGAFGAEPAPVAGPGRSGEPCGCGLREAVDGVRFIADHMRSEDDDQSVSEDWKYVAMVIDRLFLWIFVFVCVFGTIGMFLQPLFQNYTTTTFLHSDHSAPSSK
T1 sequence (P43681 whole entry): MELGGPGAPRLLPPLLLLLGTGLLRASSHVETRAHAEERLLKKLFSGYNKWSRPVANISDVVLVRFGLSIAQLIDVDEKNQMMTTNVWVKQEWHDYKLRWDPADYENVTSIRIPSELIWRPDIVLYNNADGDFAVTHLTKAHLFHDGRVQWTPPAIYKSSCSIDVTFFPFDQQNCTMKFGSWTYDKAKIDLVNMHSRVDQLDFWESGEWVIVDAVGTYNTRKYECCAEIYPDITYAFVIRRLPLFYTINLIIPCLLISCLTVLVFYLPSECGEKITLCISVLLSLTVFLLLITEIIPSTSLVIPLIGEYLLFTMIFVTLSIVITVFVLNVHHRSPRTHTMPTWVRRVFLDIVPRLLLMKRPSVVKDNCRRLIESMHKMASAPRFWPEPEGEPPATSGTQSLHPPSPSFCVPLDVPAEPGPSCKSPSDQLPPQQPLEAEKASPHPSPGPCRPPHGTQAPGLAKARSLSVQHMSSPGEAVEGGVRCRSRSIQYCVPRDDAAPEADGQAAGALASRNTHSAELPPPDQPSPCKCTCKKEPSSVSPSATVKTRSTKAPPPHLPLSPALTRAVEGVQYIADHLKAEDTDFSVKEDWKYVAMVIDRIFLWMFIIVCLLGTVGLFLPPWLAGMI

[2] = biological target: T1, Neuronal acetylcholine receptor; alpha4/beta2; test: Antagonist activity at human alpha4beta2 nAChR expressed in HEK tsA201 cells assessed as inhibition of epibatidine-induced intracellular calcium accumulation after 1 hr by fluorescence assay; format: functional, cell-based, HEK293
[3] = biological target: Neuronal acetylcholine receptor; alpha3/beta4 (Homo sapiens, UniProt P30926+P32297); test: Antagonist activity at human alpha3beta4 nAChR expressed in HEK tsA201 cells assessed as inhibition of epibatidine-induced intracellular calcium accumulation after 1 hr by fluorescence assay; format: functional, cell-based, HEK293
Neuronal acetylcholine receptor; alpha3/beta4, sequence (P30926 whole entry): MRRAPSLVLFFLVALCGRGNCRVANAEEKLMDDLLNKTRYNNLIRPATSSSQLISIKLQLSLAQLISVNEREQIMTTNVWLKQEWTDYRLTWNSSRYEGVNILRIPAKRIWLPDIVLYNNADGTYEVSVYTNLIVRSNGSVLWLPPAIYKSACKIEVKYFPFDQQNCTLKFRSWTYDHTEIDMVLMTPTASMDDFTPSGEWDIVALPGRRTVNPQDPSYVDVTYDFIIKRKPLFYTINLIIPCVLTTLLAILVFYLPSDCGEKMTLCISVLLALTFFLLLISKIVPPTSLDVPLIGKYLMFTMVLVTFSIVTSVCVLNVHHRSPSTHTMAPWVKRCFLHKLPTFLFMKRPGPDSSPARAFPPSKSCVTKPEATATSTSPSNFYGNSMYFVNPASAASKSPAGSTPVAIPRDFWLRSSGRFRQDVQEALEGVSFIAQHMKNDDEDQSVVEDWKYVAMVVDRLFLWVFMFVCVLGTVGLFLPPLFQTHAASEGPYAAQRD
Neuronal acetylcholine receptor; alpha3/beta4, sequence (P32297 whole entry): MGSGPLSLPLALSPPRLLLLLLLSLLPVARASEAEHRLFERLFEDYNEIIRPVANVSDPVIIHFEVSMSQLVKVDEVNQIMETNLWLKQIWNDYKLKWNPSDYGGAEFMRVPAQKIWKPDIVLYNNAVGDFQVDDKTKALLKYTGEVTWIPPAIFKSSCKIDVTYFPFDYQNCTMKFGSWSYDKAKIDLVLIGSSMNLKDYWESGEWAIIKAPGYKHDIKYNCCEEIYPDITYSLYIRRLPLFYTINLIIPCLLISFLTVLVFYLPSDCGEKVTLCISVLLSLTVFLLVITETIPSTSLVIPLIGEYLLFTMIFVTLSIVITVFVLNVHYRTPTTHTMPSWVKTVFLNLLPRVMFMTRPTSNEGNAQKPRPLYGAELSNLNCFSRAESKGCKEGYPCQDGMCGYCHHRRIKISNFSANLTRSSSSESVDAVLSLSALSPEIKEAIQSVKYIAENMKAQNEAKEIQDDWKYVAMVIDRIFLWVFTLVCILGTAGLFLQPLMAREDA

| residual activity [1] [%] | IC50 [2] [µM] | IC50 [3] [µM] | SMILES |
| --- | --- | --- | --- |
| 47.7 | 14.4 | 46.3 | Cc1cccc(NC(=O)c2cc(N)ccc2N2CCCCC2)n1 |
| 49.5 | 20.6 | > 100 | O=C(O)c1cc(NCc2cccs2)ccc1N1CCOCC1 |
| 51.1 | 6.1 | > 100 | C=CCN1C(=O)[C@](O)(CC(=O)c2ccco2)c2cc(Cl)ccc21 |
| 71 | – | – | COC(=O)c1ccc(N2CCN(C)CC2)c(NC(=O)Cc2ccccc2)c1 |
| 74 | – | – | Cc1cccc(C(C)C)c1NC(=O)c1ccccc1NS(C)(=O)=O |
| 46.9 | 9.8 | 19.6 | O=C(CN1CCN(S(=O)(=O)c2ccc(F)cc2)CC1)Nc1ccccc1F |
| 103 | – | – | CC(=O)N1CCN(c2ccc(NC(=O)c3cccnc3)cc2Cl)CC1 |
| 72.5 | – | – | O=C(Nc1ccc(F)cc1)C1CC(=O)n2c(nc3ccccc32)N1 (configuration not stated) |
| 59.8 | – | – | O=C(CN1CCN(c2ccccc2)CC1)NCc1ccco1 |
| 59.9 | – | – | C=C(C)CN1C(=O)C(O)(CC(=O)c2ccccn2)c2ccccc21 (configuration not stated) |
| 83.2 | – | – | Cn1c(=O)c2[nH]c(CN3CCc4ccccc4C3)nc2n(C)c1=O |
| 83.3 | – | – | O=C(O)CCC(=O)Nc1cc(F)ccc1F |
| 86.2 | – | – | CC(=O)Nc1ccc2c(c1)nc(CN1CCCCC1)n2C |
| 76.2 | – | – | O=C(CSc1nnc(-c2ccccn2)o1)Nc1cccc2ccccc12 |
